Series [1] concerns the target T1, human synthetic MSK1 (14-438-K, Millipore) (Homo sapiens, UniProt O75582).
T1 construct: purchased Millipore 14-438-K
In words: MSK1 enzymatic inhibition assay (Kinase-Glo luminescence). The series is classed as biochemical. To be noted: for MSK1 inhibitory activity (in words): tested at 1 and 10 µM; for inhibition at 1 µM: read-out: MSK1 % Inhibition 1 µM; for inhibition at 10 µM: read-out: MSK1 % Inhibition 10 µM; for IC50: 8 concentrations 0.03-100 µM. The method, then:
All results are summarized in Table 1, Table 2, Table 3, Table 4 and Table 5 and on Figure 4. […]
An orthogonal luminescence-based assay Kinase-Glo® (Promega, Madison, WI, USA) was used to validate the hits, quantifying the amount of the remaining ATP in the solution following the kinase reaction. Enzymatic reactions were performed up to 4h at room temperature in presence of 3 µM ATP. All compounds were tested in quadruplicates at 1 µM and 10 µM. […] Luminescence was measured with EnVision Plate Reader (Perkin Elmer).
A general note: Kinase-Glo measures the ATP left after a reaction by luminescence.

Setting [2] is: compound at 1 µM, ± Standard Deviation (n = 4).
The mark [3] stands for this setting: compound at 10 µM, ± Standard Deviation (n = 4).
Setting [4] is: ± Standard Deviation (n = 4), read-out: MSK1 IC50.
The mark [5] stands for this setting: MSK1 IC50, ± Standard Deviation (n = 4).

Counter-ions that a name gives are not always drawn. Like-named read-outs stand apart in the source and are kept apart here.

T1 sequence (O75582 whole entry): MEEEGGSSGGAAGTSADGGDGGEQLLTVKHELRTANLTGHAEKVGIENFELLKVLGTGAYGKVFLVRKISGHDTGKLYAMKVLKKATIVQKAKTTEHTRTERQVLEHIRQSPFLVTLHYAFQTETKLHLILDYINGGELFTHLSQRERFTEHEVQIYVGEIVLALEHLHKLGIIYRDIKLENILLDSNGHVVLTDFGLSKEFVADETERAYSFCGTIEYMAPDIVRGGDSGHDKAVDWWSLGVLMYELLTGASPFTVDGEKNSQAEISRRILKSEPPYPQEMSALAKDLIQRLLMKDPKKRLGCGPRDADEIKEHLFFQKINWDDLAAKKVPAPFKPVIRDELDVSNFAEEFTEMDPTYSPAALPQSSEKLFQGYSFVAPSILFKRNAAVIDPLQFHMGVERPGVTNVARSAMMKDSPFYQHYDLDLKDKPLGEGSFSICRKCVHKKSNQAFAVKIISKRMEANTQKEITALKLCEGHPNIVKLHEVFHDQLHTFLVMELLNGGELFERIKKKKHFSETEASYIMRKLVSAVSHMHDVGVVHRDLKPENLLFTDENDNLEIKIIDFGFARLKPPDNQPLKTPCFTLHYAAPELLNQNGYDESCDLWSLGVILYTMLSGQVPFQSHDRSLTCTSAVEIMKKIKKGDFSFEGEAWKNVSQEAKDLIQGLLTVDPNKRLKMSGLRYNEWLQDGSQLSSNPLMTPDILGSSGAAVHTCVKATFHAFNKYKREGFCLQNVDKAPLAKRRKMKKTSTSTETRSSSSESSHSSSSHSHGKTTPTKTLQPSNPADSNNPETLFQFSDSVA

“6-Phenyl-3,4-dihydrobenzodiazepin-2-amine Hydrochloride [Compound 57]”: in series [1] (setting [2]), the “MSK1 % Inhibition 1 µM” value worked out at 8±6%. Also, the “MSK1 % Inhibition 10 µM” value in series [1] (setting [3]) is 12±6%. In series [1], the “MSK1 inhibitory activity (in words)” value is “inactive”.
Usually melting point stands for the temperature of the solid-liquid transition. Compound `N=C(N)Nc1cccc(N2CCCCC2)n1` (as salt: salt) [Compound 31, 2-guanidino-6-piperidinopyridine] gave a melting point of 196 to 197 °C.
The same measure, in the same setting: the result for `N=C(N)Nc1cccc(-c2ccccc2F)n1` (as salt: trifluoroacetate) [Compound 1j, 1-[6-(2-Fluorophenyl)pyridin-2-yl] guanidiniumtrifluoroacetate] reads 199 to 200 °C; that for `Cc1ccccc1-c1cccc(NC(=N)N)n1` (as salt: trifluoroacetate) [Compound 1l, 1-[6-(2-Methylphenyl)pyridin-2-yl] guanidiniumtrifluoroacetate], 168 to 169 °C.
Same read-out and setting: to `N=C(N)Nc1cccc(-c2ccc(Cl)cc2Cl)n1` (as salt: trifluoroacetate) [Compound 1p, 1-[6-(2,4-Dichlorophenyl)pyridin-2-yl] guanidiniumtrifluoroacetate] belongs 196 to 197 °C; to `N=C(N)Nc1cccc(-c2cc(Cl)ccc2Cl)n1` (as salt: trifluoroacetate) [Compound 1q, 1-[6-(2,5-Dichlorophenyl)pyridin-2-yl] guanidiniumtrifluoroacetate], 151 to 152 °C; to `N=C(N)Nc1cccc(-c2ccncc2)n1` (as salt: trifluoroacetate) [Compound 1r, 1-[6-(Pyridin-4-yl)pyridin-2-yl] guanidiniumtrifluoroacetate], 208 to 209 °C.
With `N=C(N)Nc1cccc(Cc2ccccc2)n1` (as salt: trifluoroacetate) [Compound 17, 1-(6-Benzylpyridin-2-yl) guanidiniumtrifluoroacetate], the melting point was 161 to 162 °C.
The term inhibition denotes the relative decrease from the control value, in per cent. Regarding `N=C(N)Nc1cccc(-c2ccc(Cl)cc2)n1` [Compound 1b], the inhibition at 1 µM in series [1] (setting [2]) is -4 ± 5%. In addition, in series [1] (setting [3]), the inhibition at 10 µM stood at 23 ± 1%. Also, the “MSK1 inhibitory activity (in words)” value in series [1] was “inactive”.
For the compound `N=C(N)Nc1cccc(-c2ccc(C(F)(F)F)cc2)n1.O=C(O)C(F)(F)F` [Compound 1c, 1-[6-(4-Trifluoromethylphenyl)pyridin-2-yl] guanidinium trifluoroacetate], the melting point lay in the range of 248 to 249 °C. Besides, the inhibition at 1 µM in series [1] (setting [2]) was -6 ± 2%. In addition, the inhibition at 10 µM in series [1] (setting [3]) was -1 ± 5%. The “MSK1 inhibitory activity (in words)” value in series [1] was “inactive”.
As to `COc1ccc(-c2cccc(NC(=N)N)n2)cc1` [Compound 1d], the inhibition at 1 µM in series [1] (setting [2]) was -5 ± 3%. Besides, the inhibition at 10 µM in series [1] (setting [3]) was -3 ± 4%. For the same compound, the “MSK1 inhibitory activity (in words)” value in series [1] was “inactive”.
In general, IC50 refers to the point on the concentration scale where inhibition reaches its midpoint. `N=C(N)Nc1cccc(-c2cccc(Cl)c2)n1` [Compound 1e]: the inhibition at 1 µM in series [1] (setting [2]) worked out at 0%. The inhibition at 10 µM in series [1] (setting [3]) turned out to be 45 ± 5%. In addition, the IC50 in series [1] (setting [4]) turned out to be 9.7 ± 1 µM.
For the compound `COc1cccc(-c2cccc(NC(=N)N)n2)c1` [Compound 1f], the inhibition at 1 µM in series [1] (setting [2]) is -7 ± 4%. Moreover, in series [1] (setting [3]), the inhibition at 10 µM worked out at 16 ± 4%. Moreover, in series [1], the “MSK1 inhibitory activity (in words)” value is “inactive”.
With `N=C(N)Nc1cccc(-c2cccc(C(F)(F)F)c2Cl)n1` [Compound 1i, 1-[6-(2-chloro-3-trifluoromethylphenyl)pyridin-2-yl] guanidinium trifluoroacetate], the inhibition at 1 µM in series [1] (setting [2]) was determined as 10 ± 5%. In series [1] (setting [3]), the inhibition at 10 µM stood at 62 ± 15%. For the same compound, the half-inhibitory concentration (IC50) in series [1] (setting [4]) came out at 8.6 ± 0.9 µM.
The like results for `N=C(N)Nc1cccc(-c2ccccc2Cl)n1` [Compound 1k] were, in that order, 62 ± 8%, 95 ± 8% and 0.6 ± 0.1 µM.
Turning to `Cc1ccccc1-c1cccc(NC(=N)N)n1` [Compound 1l, 1-[6-(2-Methylphenyl)pyridin-2-yl] guanidiniumtrifluoroacetate], the inhibition at 1 µM in series [1] (setting [2]) is 4 ± 8%. Besides, the inhibition at 10 µM in series [1] (setting [3]) was determined as 48 ± 15%. Moreover, in series [1] (setting [4]), the IC50 was 3.5 ± 0.3 µM.
For the compound `COc1ccccc1-c1cccc(NC(=N)N)n1` [Compound 1n], the inhibition at 1 µM in series [1] (setting [2]) is 16 ± 3%. Further, the inhibition at 10 µM in series [1] (setting [3]) came to 66 ± 12%. Also, the 50% inhibitory concentration (IC50) in series [1] (setting [4]) came out at 2.3 ± 0.3 µM.
Consider `N=C(N)Nc1cccc(-c2ccc(Cl)cc2Cl)n1` [Compound 1p, 1-[6-(2,4-Dichlorophenyl)pyridin-2-yl] guanidiniumtrifluoroacetate], for which the inhibition at 1 µM in series [1] (setting [2]) was determined as 2 ± 2%. Further, in series [1] (setting [3]), the inhibition at 10 µM is 31 ± 7%. The half-maximal inhibitory concentration (IC50) in series [1] (setting [4]) was above 30 µM.
Take `N=C(N)Nc1cccc(-c2ccncc2)n1` [Compound 1r, 1-[6-(Pyridin-4-yl)pyridin-2-yl] guanidiniumtrifluoroacetate]: in series [1] (setting [3]), the inhibition at 10 µM worked out at 18 ± 2%.
For `N=C(N)Nc1cccc(-c2cccnc2)n1` [Compound 1s, 1-[6-(Pyridin-3-yl)pyridin-2-yl] guanidinium trifluoroacetate], the inhibition at 10 µM in series [1] (setting [3]) amounted to 70 ± 7%. Further, the half-maximal inhibitory concentration (IC50) in series [1] (setting [4]) amounted to 5.8 ± 0.6 µM.
The compound `N=C(N)Nc1cccc(-c2cccnc2Cl)n1` [Compound 1t, 1-(2′-Chloro-[2,3′-bipyridin]-6-yl) guanidiniumtrifluoroacetate] yielded an IC50 in series [1] (setting [5]) of 12.6 ± 4 µM. Besides, the inhibition at 10 µM in series [1] came to 69 ± 11%.
Turning to `COc1ncccc1-c1cccc(NC(=N)N)n1` [Compound 1u, 1-(2′-Methoxy-[2,3′-bipyridin]-6-yl) guanidiniumtrifluoroacetate], in series [1] (setting [5]), the 50% inhibitory concentration (IC50) was above 30 µM. Further, in series [1], the inhibition at 10 µM came to 42 ± 7% and the “MSK1 inhibitory activity (in words)” value is on record as “abolished the inhibitory activity”.
`N=C(N)Nc1ccc(-c2ccccc2)cn1` [Compound 12, 5-phenyl pyridinylguanidine]: the inhibition at 1 µM in series [1] (setting [2]) is -10 ± 2%. Also, in series [1] (setting [3]), the inhibition at 10 µM was -11 ± 1%. Also, in series [1], the “MSK1 inhibitory activity (in words)” value is “inactive”.
In the same order, the values of `N=C(N)Nc1cc(-c2ccccc2)ccn1` [Compound 13] are -4 ± 1%, 5 ± 1% and “inactive”.
As for `N=C(N)Nc1ncccc1-c1ccccc1` [Compound 14], the inhibition at 1 µM in series [1] (setting [2]) turned out to be 1 ± 5%. The inhibition at 10 µM in series [1] (setting [3]) was 11 ± 5%. For the same compound, the “MSK1 inhibitory activity (in words)” value in series [1] is “inactive”.
For the compound `N=C(N)Nc1cccc(Cc2ccccc2)n1` [Compound 17, 1-(6-Benzylpyridin-2-yl) guanidiniumtrifluoroacetate], in series [1], the inhibition at 1 µM was -2 ± 1%, the inhibition at 10 µM was -2 ± 3% and the “MSK1 inhibitory activity (in words)” value was “inactive”.
For the compound `N=C(N)Nc1cccc(CCc2ccccc2)n1` [Compound 24], the inhibition at 1 µM in series [1] (setting [2]) is -4 ± 1%. Besides, in series [1] (setting [3]), the inhibition at 10 µM was -8 ± 1%. Besides, the “MSK1 inhibitory activity (in words)” value in series [1] was “inactive”.
`N=C(N)Nc1ccc(CCc2ccccc2)cn1` [Compound 25]: in series [1] (setting [2]), the inhibition at 1 µM was determined as 2 ± 4%. In series [1] (setting [3]), the inhibition at 10 µM was determined as 6 ± 4%.
Consider `N=C(N)Nc1cccc(N2CCCCC2)n1` [Compound 31, 2-guanidino-6-piperidinopyridine], for which, in series [1] (setting [3]), the inhibition at 10 µM was found to be 16 ± 4%. For the same compound, the “MSK1 inhibitory activity (in words)” value in series [1] was “totally inactive”.
For the compound `NC(=S)Nc1cccc(-c2ccccc2)n1` [Compound 33, 1(6-phenylpyridin-2-yl)thiourea], the inhibition at 1 µM in series [1] (setting [2]) stood at 2 ± 10%. For the same compound, the inhibition at 10 µM in series [1] (setting [3]) came out at 5 ± 3%. Moreover, the “MSK1 inhibitory activity (in words)” value in series [1] was “inactive”.
Take `COc1ccc(-c2cccc3c2CNC(N)=N3)cc1` [Compound 37c, 5-(4-Methoxyphenyl)-3,4-dihydroquinazolin-2-amine Hydrobromide]: in series [1] (setting [2]), the inhibition at 1 µM is -7 ± 4%. Besides, the inhibition at 10 µM in series [1] (setting [3]) is -5 ± 5%.
Regarding `NC1=Nc2ccc(-c3ccccc3)cc2CN1` [Compound 43], the inhibition at 1 µM in series [1] (setting [2]) came to 7 ± 9%. The inhibition at 10 µM in series [1] (setting [3]) was found to be 9 ± 6%.
For the compound `Nc1nc2c(-c3cccc(Cl)c3Cl)cccc2[nH]1` [Compound 49e, 4-(2,3-Dichlorophenyl)-1H-benzo[d]imidazol-2-amine Hydrobromide], the inhibition at 1 µM in series [1] (setting [2]) is 20 ± 3%. For the same compound, in series [1] (setting [3]), the inhibition at 10 µM was found to be 75 ± 8%. Besides, the half-inhibitory concentration (IC50) in series [1] (setting [4]) was determined as 3.2 ± 0.2 µM.
Consider `Nc1nc2cc(-c3ccccc3)ccc2[nH]1` [Compound 50], for which the inhibition at 1 µM in series [1] (setting [2]) was -7 ± 5%. Moreover, the inhibition at 10 µM in series [1] (setting [3]) came out at 4 ± 4%.
`O=c1[nH]c2cccc(-c3ccccc3Cl)c2[nH]1` [Compound 64]: the inhibition at 1 µM in series [1] (setting [2]) is -18 ± 5%. In addition, the inhibition at 10 µM in series [1] (setting [3]) is 0%. In addition, the “MSK1 inhibitory activity (in words)” value in series [1] is on record as “inactivity”.
The like results for `Nc1nc2c(-c3ccccc3Cl)cccc2s1` [Compound 67] were, in that order, -28 ± 7%, 4 ± 14% and “inactivity”.
Turning to `Nc1nc2c(-c3ccccc3Cl)cccc2n1CCc1ccccc1` [Compound 74a], the inhibition at 1 µM in series [1] (setting [2]) was -6 ± 3%. Besides, the inhibition at 10 µM in series [1] (setting [3]) amounted to 41 ± 6%.
The like results for `Nc1nc2c(-c3ccccc3Cl)cccc2n1CCO` [Compound 74b] were, in that order, -2 ± 4% and 49 ± 13%.
As to `Nc1nc2c(-c3ccccc3Cl)cccc2n1CCCNC(=O)c1ccccc1` [Compound 74c], in series [1] (setting [2]), the inhibition at 1 µM is -4 ± 2%. Further, in series [1] (setting [3]), the inhibition at 10 µM was determined as 37 ± 5%.
In the case of `Nc1nc2c(-c3ccccc3Cl)cccc2n1CCCCc1ccccc1` [Compound 74d], the inhibition at 1 µM in series [1] (setting [2]) turned out to be 1 ± 3%. In addition, the inhibition at 10 µM in series [1] (setting [3]) worked out at 5 ± 3%.
In the same order, the values of `Nc1nc2cccc(-c3ccccc3Cl)c2n1CCc1ccccc1` [Compound 75] are -6 ± 2% and 1 ± 2%.

These data come from article PMC7828447, “Design, Synthesis and Biological Evaluation of Arylpyridin-2-yl Guanidine Derivatives and Cyclic Mimetics as Novel MSK1 Inhibitors. An Application in an Asthma Model” (Molecules, 2021).
